Experimental data reported in patent US8343990B2, “Substituted cyclopropyl compounds, compositions containing such compounds and methods of treatment” (Merck Sharp & Dohme Corp., priority 2008, dated 2013).

Target: T1, GPR119 receptor (UniProt Q8TDV5, S309L, species not given)
T1 sequence (Q8TDV5 1-335 S309L): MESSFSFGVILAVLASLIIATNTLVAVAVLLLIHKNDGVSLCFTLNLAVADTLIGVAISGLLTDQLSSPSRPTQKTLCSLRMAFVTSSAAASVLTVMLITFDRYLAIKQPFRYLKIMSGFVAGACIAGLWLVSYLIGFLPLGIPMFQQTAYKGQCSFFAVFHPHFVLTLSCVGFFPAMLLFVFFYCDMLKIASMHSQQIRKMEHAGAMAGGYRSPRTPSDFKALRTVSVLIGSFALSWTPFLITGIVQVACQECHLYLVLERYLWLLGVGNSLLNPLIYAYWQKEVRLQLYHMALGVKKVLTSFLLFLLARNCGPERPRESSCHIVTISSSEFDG
Experiment: GPR119 signaling, cyclic AMP (cAMP) homogenous time resolved fluorescence (HTRF) assay
Format: cell-based
Conditions: CHO cells with Gα15 and murine GPR119, or HEK293 Flp-In cells with human GPR119 S309L; table does not say which; read-out: Activity: inflection points, denoted as EC50 values (agonist activation of GPR119, cAMP)
In short: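 Agonist-induced cAMP measured in CHO cells expressing Gα15 plus murine GPR119, or HEK293 Flp-In cells expressing human S309L variant. Suspended cells exposed to compound titration 60 min at room temperature, lysed, HTRF read after 60 min; EC50 and efficacy versus internal agonist from 4-parameter fit.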

Row | EC50 | Compound
1 | 50 to 200 nM | N#Cc1cncc(OCC[C@@H]2C[C@@H]2C2CCN(c3ncc(Cl)cn3)CC2)c1 (racemic) [Ex 50, Rac-cis-5-(2-{2-[1-(5-chloropyrimidin-2-yl)piperidin-4-yl]cyclopropyl}ethoxy)nicotinonitrile]
2 | < 10 nM | Cc1nnc(-c2ccc(OCC[C@H]3C[C@H]3C3CCN(c4ncccn4)CC3)cc2F)o1 (racemic) [Ex 85, Rac-cis-2-[4-(2-{2-[3-fluoro-4-(5-methyl-1,3,4-oxadiazol-2-yl)phenoxy]ethyl}cyclopropyl)piperidin-1-yl]pyrimidine]
3 | > 200 nM | Clc1cnc(N2CCC([C@@H]3C[C@@H]3CCOc3cccnc3)CC2)nc1 (racemic) [Ex 48, Rac-cis-5-chloro-2-(4-{2-[2-(pyridin-3-yloxy)ethyl]cyclopropyl}piperidin-1-yl)pyrimidine]
4 | 50 to 200 nM | NS(=O)(=O)c1ccc(OC[C@H]2C[C@@H]2CC2CCN(c3ncc(Cl)cn3)CC2)cc1 [Ex 112, 4-[((1S,2S)-2-{[1-(5-chloropyrimidin-2-yl)piperidin-4-yl]methyl}cyclopropyl)methoxy]benzenesulfonamide]
5 | < 10 nM | Clc1cnc(N2CCC([C@@H]3C[C@@H]3CCOc3ccc(-n4ccnn4)cc3)CC2)nc1 (single isomer, unassigned) [Ex 83aS, cis-5-chloro-2-[4-(2-{2-[4-(1H-1,2,3-triazol-1-yl)phenoxy]ethyl}cyclopropyl)piperidin-1-yl]pyrimidine]
6 | 10 to 50 nM | Clc1cnc(N2CCC([C@H]3C[C@@H]3CCOc3ccc(-n4cncn4)cc3)CC2)nc1 [Ex 95, 5-chloro-2-[4-((1R,2R)-2-{2-[4-(1H-1,2,4-triazol-1-yl)phenoxy]ethyl}cyclopropyl)piperidin-1-yl]pyrimidine]
7 | 50 to 200 nM | Cc1cc(OC[C@@H]2C[C@H]2CC2CCN(c3ncc(Cl)cn3)CC2)nc(C#N)n1 (racemic) [Ex 114, rac-trans-4-[(2-{[1-(5-chloropyrimidin-2-yl)piperidin-4-yl]methyl}cyclopropyl)methoxy]-6-methylpyrimidine-2-carbonitrile]
8 | > 200 nM | Clc1cnc(N2CCC(C3CC3CCOc3ccc(-c4cnn[nH]4)cc3)CC2)nc1 (racemic) [Ex 29, rac cis-5-chloro-2-[4-(2-{2-[4-(1H-1,2,3-triazol-5-yl)phenoxy]ethyl}cyclopropyl)piperidin-1-yl]pyrimidine]
9 | 10 to 50 nM | Clc1cnc(N2CCC(C3CC3CCOc3ccc(-c4ccno4)cc3)CC2)nc1 (racemic) [Ex 21, rac cis-5-chloro-2-(4-{2-[2-(4-isoxazol-5-ylphenoxy)ethyl]cyclopropyl}piperidin-1-yl)pyrimidine]
10 | 50 to 200 nM | Cc1nnc(-c2ccc(OC[C@@H]3C[C@H]3CC3CCN(c4ncc(Cl)cn4)CC3)cc2F)o1 [Ex 109, 5-chloro-2-{4-[((1R,2R)-2-{[3-fluoro-4-(5-methyl-1,3,4-oxadiazol-2-yl)phenoxy]methyl}cyclopropyl)methyl]piperidin-1-yl}pyrimidine]
11 | 10 to 50 nM | Cc1cnc(N2CCC([C@H]3C[C@H]3CCOc3cc(C)nc(C)n3)CC2)nc1 (racemic) [Ex 41, Rac-cis-2,4-dimethyl-6-(2-{2-[1-(5-methylpyrimidin-2-yl)piperidin-4-yl]cyclopropyl}ethoxy)pyrimidine]
12 | < 10 nM | Fc1cc(OCCC2CC2C2CCN(c3ncc(Cl)cn3)CC2)ccc1-n1cnnn1 (single isomer, unassigned) [Ex 83dS, cis-5-chloro-2-[4-(2-{2-[3-fluoro-4-(1H-tetrazol-1-yl)phenoxy]ethyl}cyclopropyl)piperidin-1-yl]pyrimidine]
13 | 50 to 200 nM | Clc1cnc(N2CCC(C3CC3CCOc3ccc(-n4nccn4)cc3)CC2)nc1 (racemic) [Ex 28, rac cis-5-chloro-2-[4-(2-{2-[4-(2H-1,2,3-triazol-2-yl)phenoxy]ethyl}cyclopropyl)piperidin-1-yl]pyrimidine]
14 | < 10 nM | CS(=O)(=O)c1cccc(OCCC2CC2C2CCN(c3ncc(Cl)cn3)CC2)c1 (racemic) [Ex 7, rac cis-5-chloro-2-[4-(2-{2-[3-(methylsulfonyl)phenoxy]ethyl}cyclopropyl)piperidin-1-yl]pyrimidine]
15 | 50 to 200 nM | CC(=O)c1ccc(OCC[C@@H]2C[C@@H]2C2CCN(c3ncc(Cl)cn3)CC2)cc1 (racemic) [Ex 35, Rac-cis-1-[4-(2-{2 [1-(5-chloropyrimidin-2-yl)piperidin-4-yl]cyclopropyl}ethoxy)phenyl]ethanone]
16 | > 200 nM | N#Cc1ccc(OC[C@@H]2C[C@H]2CC2CCN(c3ncc(Cl)cn3)CC2)cc1F [Ex 105, 4-[((1R,2R)-2-{[1-(5-chloropyrimidin-2-yl)piperidin-4-yl]methyl}cyclopropyl)methoxy]-2-fluorobenzonitrile]

Row | EC50 | Compound
17 | 10 to 50 nM | Cc1cc(OC[C@@H]2C[C@@H]2CC2CCN(c3ncc(Cl)cn3)CC2)nc(C#N)n1 (racemic) [Ex 118, rac-cis-4-[(2-{[1-(5-chloropyrimidin-2-yl)piperidin-4-yl]methyl}cyclopropyl)methoxy]-6-methylpyrimidine-2-carbonitrile]
18 | < 10 nM | Cc1nc(C#N)cc(OCC[C@@H]2C[C@@H]2C2CCN(c3ncc(F)cn3)CC2)n1 (racemic) [Ex 53, Rac-cis-6-(2-{2-[1-(5-fluoropyrimidin-2-yl)piperidin-4-yl]cyclopropyl}ethoxy)-2-methylpyrimidine-4-carbonitrile]
19 | 10 to 50 nM | Cc1nnc(-c2ccc(OC[C@H]3C[C@@H]3CC3CCN(c4ncc(Cl)cn4)CC3)cc2F)o1 [Ex 110, 5-chloro-2-{4-[((1S,2S)-2-{[3-fluoro-4-(5-methyl-1,3,4-oxadiazol-2-yl)phenoxy]methyl}cyclopropyl)methyl]piperidin-1-yl}pyrimidine]
20 | 10 to 50 nM | CS(=O)(=O)c1ccc(OC[C@H]2C[C@@H]2CC2CCN(c3ncc(Cl)cn3)CC2)cc1 [Ex 103, 5-chloro-2-{4-[((1S,2S)-2-{[4-(methylsulfonyl)phenoxy]methyl}cyclopropyl)methyl]piperidin-1-yl}pyrimidine]
21 | 10 to 50 nM | Fc1cc(OC[C@@H]2C[C@H]2CC2CCN(c3ncc(Cl)cn3)CC2)ccc1-c1nnc(C2CC2)o1 (racemic) [Ex 111, rac-trans 5-chloro-2-{4-[(2-{[4-(5-cyclopropyl-1,3,4-oxadiazol-2-yl)-3-fluorophenoxy]methyl}cyclopropyl)methyl]piperidin-1-yl}pyrimidine]
22 | < 10 nM | Cc1nnc(-c2ccc(OCCC3CC3C3CCN(c4ncc(Cl)cn4)CC3)cc2F)o1 (single isomer, unassigned) [Ex 83 S, cis-5-chloro-2-[4-(2-{2-[3-fluoro-4-(5-methyl-1,3,4-oxadiazol-2-yl)phenoxy]ethyl}cyclopropyl)piperidin-1-yl]pyrimidine]
23 | < 10 nM | Cc1cnc(N2CCC(C3CC3CCOc3ccc(-n4cnnn4)c(F)c3)CC2)nc1 (racemic) [Ex 30e, rac cis-2-[4-(2-{2-[3-fluoro-4-(1H-tetrazol-1-yl)phenoxy]ethyl)cyclopropyl)piperidin-1-yl]-5-methylpyrimidine]
24 | 50 to 200 nM | Clc1cnc(N2CCC(C3CC3CCOc3ccc(-c4cn[nH]c4)cc3)CC2)nc1 (racemic) [Ex 23, rac cis-5-chloro-2-[4-(2-{2-[4-(1H-pyrazol-4-yl)phenoxy]ethyl}cyclopropyl)piperidin-1-yl]pyrimidine]
25 | 10 to 50 nM | Cc1nc(C#N)cc(OCC[C@@H]2C[C@@H]2C2CCN(c3ncc(C)c(C)n3)CC2)n1 (racemic) [Ex 44, Rac-cis-6-(2-{2-[1-(4,5-dimethylpyrimidin-2-yl)piperidin-4-yl]cyclopropyl}ethoxy)-2-methylpyrimidine-4-carbonitrile]
26 | 10 to 50 nM | O=C(NC1CC1)c1ccc(OC[C@@H]2C[C@@H]2CC2CCN(c3ncc(Cl)cn3)CC2)cc1F (racemic) [Ex 117, rac-cis 4-[(2-{[1-(5-chloropyrimidin-2-yl)piperidin-4-yl]methyl}cyclopropyl)methoxy]-N-cyclopropyl-2-fluorobenzamide]
27 | < 10 nM | Cc1nc(C#N)cc(OCC[C@@H]2C[C@@H]2C2CCN(c3ncc(Cl)c(C)n3)CC2)n1 (racemic) [Ex 42, Rac-cis-6-(2-{2-[1-(5-chloro-4-methylpyrimidin-2-yl)piperidin-4-yl]cyclopropyl}ethoxy)-2-methylpyrimidine-4-carbonitrile]
28 | 10 to 50 nM | Clc1cnc(N2CCC(C3CC3CCOc3ccc(-n4cnnc4)cc3)CC2)nc1 (racemic) [Ex 26, rac cis-5-chloro-2-[4-(2-{2-[4-(4H-1,2,4-triazol-4-yl)phenoxy]ethyl}cyclopropyl)piperidin-1-yl]pyrimidine]
29 | 50 to 200 nM | Clc1cnc(N2CCC(C3CC3CCOc3ccncc3)CC2)nc1 (racemic) [Ex 98, rac-trans-5-chloro-2-(4-{2-[2-(pyridin-4-yloxy)ethyl]cyclopropyl}piperidin-1-yl)pyrimidine]
30 | < 10 nM | Cc1cnc(N2CCC(C3CC3CCOc3cc(C#N)nc(C)n3)CC2)nc1 (single isomer, unassigned) [Ex 39, Chiral-cis-2-methyl-6-(2-{2-[1-(5-methylpyrimidin-2-yl)piperidin-4-yl]cyclopropyl}ethoxy)pyrimidine-4-carbonitrile]
31 | < 10 nM | Cc1nc(C#N)cc(OCC[C@@H]2C[C@@H]2C2CCN(c3ncc(F)c(C)n3)CC2)n1 (racemic) [Ex 46, Rac-cis-6-(2-{2-[1-(5-fluoro-4-methylpyrimidin-2-yl)piperidin-4-yl]cyclopropyl}ethoxy)-2-methylpyrimidine-4-carbonitrile]
